The target of this assay is TCF7L2 (Homo sapiens). The assay is described as follows: Inhibition of beta-catenin/Tcf4 (unknown origin) in human SW480 cells assessed as reduction in cyclin D1 level qRT-PCR analysis.

For one compound, IC50 results are on record in BindingDB's records for PubMed 33822624 (Ocean University of China, 2021).

As a reminder, the IC50 is the point on the concentration scale where inhibition reaches its midpoint.

As to `CC[C@H](C)[C@H](NC(=O)[C@H]1Cc2cn(nn2)CCCC[C@H](NC(=O)[C@H](CC(C)C)NC(=O)[C@H](CO)NC(=O)[C@H](CCCNC(=N)N)NC(=O)[C@H](CCC(=O)O)NC(=O)[C@H](CCCNC(=N)N)NC(=O)[C@H](Cc2cnc[nH]2)NC(=O)[C@H]2Cc3cn(nn3)CCCC[C@H](NC(=O)[C@H](CO)NC(=O)[C@H](CC(C)C)NC(C)=O)C(=O)N[C@@H](CCC(=O)O)C(=O)N[C@@H](CCC(N)=O)C(=O)N[C@@H](CC(C)C)C(=O)N2)C(=O)N[C@@H]([C@@H](C)O)C(=O)N[C@@H](CC(C)C)C(=O)N[C@@H](CCCNC(=N)N)C(=O)N1)C(=O)N[C@@H](CCC(N)=O)C(=O)N[C@@H](CCCNC(=N)N)C(=O)N[C@@H](CC(C)C)C(=O)N[C@@H](CC(C)C)C(=O)N[C@@H](Cc1ccccc1)C(N)=O`, the IC50 amounted to 4.2 µM.
